The values below come from patent US7332468B2, “8-tetradecenal as fragrance and flavoring substance” (Symrise GmbH & Co. KG, priority 2001, dated 2008).

Structures are written as SMILES.

Assay [1] is described as follows: Determination of the odor threshold values in water. As to the method:
The odor threshold values in water were determined in the conventional manner for (Z)-8- and (E)-8-tetradecenal and for two comparison substances.

For assay [2] the following is noted: Boelens, Van Gemert 1987; cited from earlier work.
The conditions of assay [3]: Cadwallader et al. 1999; cited from earlier work.
Assay [4] in a line: Odor description by a panel of expert flavoring specialists, ranking scale 0-4. More on the design: key to Green-herby / Honey-like (beeswax) / Fresh, fizzy / Citrus-like / Fruity / Flowery / Of orange peel / Of pith / Sweet / Fatty / Waxy: 0: absent; 1: weak; 2: moderate; 3: strong; 4: very strong. As to conditions: odor ranking 0-4, expert panel. The method, then: The substances (Z)-8- and (E)-8-tetradecenal according to the invention were tested by a panel of expert flavoring specialists in the conventional manner. The experts assessed the relevant odors on the basis of the procedure in the article entitled “Organoleptic properties of aliphatic aldehydes”, Boelens, Mans H.; Van Gemert, Leo J.; Perfum. Flavor. (1987), 12(5), 31-7, 40, 43, which has already been cited, i.e. they quantified the odors of the particular substance on the basis of an assessment scale with rankings of 0-4. The rankings have the following meanings: • 0: absent • 1: weak • 2: moderate • 3: strong • 4: very strong

The nature of assay [5]: Modification of a conventional orange flavor composition. The following applies: based on the total mass of the composition. From the text:
A conventional flavor composition (composition A) was compared with a flavor composition according to the invention (composition B).

In the case of `CCCCCC/C=C\CCCCCC=O` [7-(Z)-tetradecenal, (Z)-7-tetradecenal], in assay [1], the “usable sensory properties compared with (Z)-8-tetradecenal” value is recorded as “do not have any usable sensory properties”. Also, in assay [1] (in water), the Odor threshold value is on record as 2.60 ppb and the “odor threshold compared with that of (Z)-8-tetradecenal” value is recorded as “approximately two orders of magnitude higher”.

For `CCCCC/C=C/C=O` [trans-2-octenal], the citrus aspect result in assay [2] was “noteworthy”.

Consider `CCCCCCCCCCC/C=C/C=O` [(E)-2-tetradecenal], for which the odor description entry in assay [3] is “fatty, waxy, cheesy”. In assay [2], the citrus aspect entry is listed as “weak” and the fatty aspect result is reported as “strong”.

Turning to `CCCCC/C=C\CCCCCCC=O` [8-(Z)-tetradecenal, (Z)-8-tetradecenal], in assay [1] (in water), the Odor threshold value was 0.009 ppb; the “odor threshold value lower than that of (Z)-7-tetradecenal and (Z)-9-tetradecenal” value is recorded as “approximately 2 orders of magnitude”. Also, in assay [4], the Chemical is on record as 0-1, the Citrus-like was 4, the Fatty was found to be 1 and the Flowery is reported as 2. Also, in assay [4], the “Fresh, fizzy” value amounted to 4; the Fruity is given as 1; the Green-herby was 0; the “Honey-like (beeswax)” value amounted to 2. In assay [4], the Of orange peel is recorded as 4, the Of pith came out at 4, the Sweet is recorded as 3 and the Waxy is 1-2. In addition, in assay [5], the “proportion sufficient to make a conventional orange flavor fresher, juicier, more typical and more harmonious” value is given as 0.001 % (m/m).

On to `CCCCCCC/C=C/C=O` [trans-2-decenal], for which the citrus aspect result in assay [2] was “noteworthy”.

On to `CCCCCCCC/C=C/C=O` [trans-2-undecenal], for which, in assay [2], the citrus aspect entry is listed as “noteworthy”.

In assay [1] (in water), `CCCCC/C=C/CCCCCCC=O` [8-(E)-tetradecenal, (E)-8-tetradecenal] came in with an Odor threshold value of 1.24 ppb. Further, in assay [4], the Chemical is on record as 2-3, the Citrus-like is recorded as 1-2, the Fatty was 4 and the Flowery is reported as 0-1. For the same compound, in assay [4], the “Fresh, fizzy” value is recorded as 0; the Fruity was 0; the Green-herby was found to be 1; the “Honey-like (beeswax)” value was determined as 0. In assay [4], the Of orange peel is on record as 0, the Of pith came out at 1, the Sweet is given as 1-2 and the Waxy was 4.

For the compound `CCCC/C=C\CCCCCCCC=O` [9-(Z)-tetradecenal, (Z)-9-tetradecenal], the “usable sensory properties compared with (Z)-8-tetradecenal” value in assay [1] is given as “do not have any usable sensory properties”. In assay [1] (in water), the Odor threshold value was found to be 1.44 ppb and the “odor threshold compared with that of (Z)-8-tetradecenal” value was “approximately two orders of magnitude higher”.

`CCCCC/C=C/CCC=O` [(E)-4-decenal]: the odor description result in assay [3] is given as “citrus peel”.
